This note sets out measurements from the pKa sets of Baltruschat and Czodrowski (2020).

What is called pKa is the pH at which an ionisable group is half protonated. Low readings indicate a group that gives up its proton readily, high ones a group that holds its proton tightly. Molecule `CC1CCCCN1` (stereo not drawn) registered a pKa (basic group) of 11.
On the same count and under the same terms, next, `COc1ccc2c3c1O[C@H]1[C@@H](O)C=C[C@H]4[C@@H]([C@H]2O)N(C)CC[C@@]341`: 7.12.
For the molecule `C[C@H]1CC[C@H](C)C1C(=O)O`, the pKa (acidic group) was 4.74.
Molecule `O/N=C/c1ccc(O)cc1O` gave a pKa (acidic group) of 8.05.
For the molecule `Nc1ccc2nc3cc(N)ccc3cc2c1`, the pKa (basic group) amounted to 8.11.
For `Cc1cc(CO)c(O)c(CO)c1`, the pKa (acidic group) is 9.92.
Same read-out and setting: with `COc1cc(S(C)=O)ccc1-c1nc2nccnc2[nH]1` (stereo not drawn) the figure was 8.94; with `O=P([O-])([O-])C([NH2+]Cc1ccncc1)c1ccccc1O` (stereo not drawn), 10.2.
With `C=C(C)[C@@H]1C[NH2+][C@H](C(=O)[O-])[C@@H]1CC(=O)O`, the pKa (acidic group) amounted to 4.58.
With `COc1ccc2c(c1OC(C)=O)[C@]13CCN(C)[C@H](C2)[C@@H]1CC[C@H](OC)C3`, for the setting “basic group”, the pKa amounted to 9.31.
`COc1ccc(NS(=O)(=O)c2ccccc2)cc1` had a pKa (acidic group) of 8.88.
For the molecule `C=C[C@]1(O)C[C@H](C)N[C@@H]2CCCC[C@H]21`, the pKa (basic group) was determined as 9.83.
Where the note is “basic group”, `CC(O)CN(CC(C)O)C(C)C` (stereo not drawn) registered a pKa of 9.33.
`CN(C)c1ccc(/C=C/c2cc[n+]([O-])cc2)cc1` returned a pKa (basic group) of 4.3.
For `NNC(=O)CF`, the pKa (acidic group) turned out to be 11.3.
As for `CCNN(C)CC`, the pKa (basic group) was 6.81.
Turning to `[NH3+]CCCCCCCC(=O)O`, the pKa (acidic group) was determined as 4.5.
`CC(=O)CC(=O)C(C)(C)C`: the pKa (acidic group) worked out at 9.94.
Regarding `[O-]c1ncncc1O`, the pKa is 11.6 (acidic group) and 7.48 (basic group).
For the molecule `NC(=O)CCCc1cccnc1`, under “basic group”, the pKa worked out at 5.33.
Under “basic group”, `Cc1nc2cccc(N)c2n1C` returned a pKa of 6.66.
Regarding `O=C1CCCCC1=O`, under “acidic group”, the pKa turned out to be 10.3.
Molecule `N/C(CC(N)c1ccccc1)=N\O` (stereo not drawn) had a pKa (basic group) of 8.
On the same count and under the same terms, with `CCOC(=O)C(C)N` (stereo not drawn) the figure was 7.8; with `Nc1cccc2[nH+]cccc12`, 0.97.
`CCC(=O)NO` registered a pKa (acidic group) of 9.46.
Consider `CC1=CSC2=NCCN12`, for which the pKa (basic group) was determined as 9.81.
`O=C(Cc1ccccc1)c1cc[n+](Cc2cccc([N+](=O)[O-])c2)cc1` registered a pKa (acidic group) of 8.68.
As for `CCN(C)c1ccccc1`, the pKa (basic group) was determined as 6.02.
Take `Cc1ccnc(NS(=O)(=O)c2ccc(N)cc2)n1`: the pKa by setting is: (acidic group) 6.59; (basic group) 2.08.
In turn, `CC1(C)CC(Nc2ccccc2)=C/C(=N/c2ccccc2)C1` gave a pKa (basic group) of 9.89.
Regarding `[O-]c1cc2ccccc2cc1C1=NCCN1`, where the note is “basic group”, the pKa was determined as 10.8.
Regarding `O=C(O)/C=C/C(=O)CC(=O)CC(=O)O`, for the setting “acidic group”, the pKa came out at 3.6.
In turn, `CCc1cc(Cl)c([O-])c(C(=O)NC[C@H]2CCCN2CC)c1OC` came in with a pKa (basic group) of 9.54.
The same measure, in the same setting: next, `COc1ccc2nc3c(c(N4CCOCC4)c2c1)CCC3`: 7.14; `C1N2CN3CN1C[NH+](C2)C3`: -1.7.
Molecule `CN1c2ccccc2Nc2c(O)cccc21` had a pKa (acidic group) of 9.26.
In turn, `Nc1ccc(B(O)O)cc1` registered a pKa (acidic group) of 9.17 and a pKa (basic group) of 3.71.
For `O=C(O)c1ccc(/C=C/[N+](=O)[O-])cc1`, the pKa (acidic group) came out at 3.94.
With `Nc1ccc(S(=O)(=O)Nc2ccn(-c3ccc([N+](=O)[O-])cc3)n2)cc1`, under “acidic group”, the pKa is 6.94.
As to `CNc1ncnc2[nH]ncc12`, the pKa is 10.6 (acidic group) and 4.53 (basic group).
`C[NH+](C)Cc1cc(F)ccc1O` showed a pKa (acidic group) of 8.12.
On the same count and under the same terms, next, `COc1cc[n+](O)cc1`: 2.05.
Turning to `CC(C)NCCN`, the pKa (basic group) was 10.6.
The molecule `CC([SeH])C[NH3+]` (stereo not drawn) displayed a pKa (acidic group) of 5.19.
In the case of `CN1C[C@@H](C(=O)[O-])C=C2c3cccc4[nH]cc(c34)C[C@@H]21`, under “basic group”, the pKa came to 7.85.
The molecule `CC[NH+](CC)CC(=O)O` had a pKa (acidic group) of 1.98.
For `CN(C)N(C)C`, for the setting “basic group”, the pKa was 6.19.
Molecule `CCCC(=O)C1(c2cccc(O)c2)CCN(C)CC1` yielded a pKa (basic group) of 8.62.
`O=C(O)[C@@H]1O[C@H](Oc2cccc3[nH+]cccc23)[C@@H](O)[C@H](O)[C@H]1O` displayed a pKa (acidic group) of 3.1.
Where the note is “basic group”, `Cc1ccc(OC(=O)CCCN(C)C)cc1` came in with a pKa of 9.53.
Regarding `Nc1cccc2nnccc12`, the pKa (basic group) amounted to 2.7.
For the molecule `[NH3+]C(c1cccc(O)c1[O-])P(=O)([O-])[O-]` (stereo not drawn), the pKa (acidic group) stood at 12.4.
Molecule `CC1(C)CCCC(C)(C)N1` displayed a pKa (basic group) of 11.2.
Molecule `Fc1cccc(NC=S)c1` came in with a pKa (acidic group) of 10.9.
As for `CCOCCn1c(CN2CCC[NH+](CCCCn3cccn3)CC2)nc2ccccc21`, under “basic group”, the pKa was determined as 4.9.
For the setting “acidic group”, `COc1ccc(S(=O)(=O)NCc2ccccc2)cc1` gave a pKa of 11.5.
`[NH3+]Cc1cccnc1` registered a pKa (basic group) of 3.71.
`O=Cc1cc(Cl)ccc1O` showed a pKa (acidic group) of 7.4.
Regarding `CC(=O)CCN(C)C`, the pKa (basic group) came to 8.95.
On the same count and under the same terms, with `Cc1cc(-c2[nH]cc[nH+]2)nn1C` the figure was 2; with `CN(C)/C=N/c1ccccc1`, 9.
For the molecule `COC(=O)/C=C(/C)O`, the pKa (acidic group) turned out to be 9.48.
Molecule `CN(O)C(=O)c1ccccc1` yielded a pKa (acidic group) of 8.07.
Molecule `NC(=O)C(N)CO` (stereo not drawn) gave a pKa (acidic group) of 7.3.
For `CC(C)Cc1ccc(O)c(CN(C)C)c1`, under “basic group”, the pKa came out at 8.51.
On the same count and under the same terms, next, `CN(C)c1ccc2nc3ccc(N)cc3nc2c1`: 6.6; `N#CC1C(=O)Cc2ccccc21` (stereo not drawn): 4.8.
The same measure, in the same setting: with `c1ccc2c3c([nH]c2c1)CNCC3` the figure was 8.4; with `c1ccc(C2=NCCN2)nc1`, 8.98.
`[NH3+][C@H]1CCCC[C@@H]1C(=O)O` returned a pKa (acidic group) of 3.59.
`Fc1cccc(NC(=S)c2ccccc2)c1` had a pKa (acidic group) of 10.3.
`O=C(O)CP` displayed a pKa (acidic group) of 4.07.
Molecule `CC(CN)C(=O)[O-]` (stereo not drawn) registered a pKa (basic group) of 9.91.
`COCCNC(=S)S`: for the setting “acidic group”, the pKa was 2.85.
With `C[Si](C)(C)CNC[Si](C)(C)C`, the pKa (basic group) turned out to be 11.
Where the note is “acidic group”, `O=C1CCc2cc(Cl)c([N+](=O)[O-])cc2C1` showed a pKa of 11.3.
`CCOc1ccc2nc(/C=C/C=C/c3ccccc3)cc(N)c2c1` registered a pKa (basic group) of 9.5.
Turning to `COc1cc(CN)ccc1O`, the pKa is 10.5 (acidic group) and 8.94 (basic group).
Molecule `Nc1c(Cl)cc([N+](=O)[O-])cc1Cl` returned a pKa (basic group) of -2.98.
For the molecule `Cc1cc(C(=O)O)c[nH]1`, the pKa (acidic group) is 5.35.
As to `CN(C)CCN`, where the note is “basic group”, the pKa came to 9.53.
The same measure, in the same setting: next, `NCCSCCN`: 9.64; `CN1CCN(C)c2cccc3cccc1c23`: 4.62.
For the molecule `NC(=O)C(N)=S`, the pKa (acidic group) amounted to 11.5.
Molecule `Cc1ccc(S(=O)(=O)[N-]CCC(=N)N(C)C)cc1` gave a pKa (basic group) of 11.4.
Take `c1ccc(N=P(c2ccccc2)(c2ccccc2)c2ccccc2)cc1`: the pKa (basic group) is -0.92.
Where the note is “acidic group”, `CC(C)N(CCC(C(N)=O)(c1ccccc1)c1ccccn1)C(C)C` (stereo not drawn) yielded a pKa of 10.2.
Under “basic group”, `Nc1nnnn1-c1ccccc1` gave a pKa of 1.12.
The same measure, in the same setting: next, `CC(C)N(C)/C=[NH+]/c1ccc(-c2c[nH]cn2)cc1`: 5.52; `C[NH+]1CCN(C(c2ccccc2)c2ccc(Cl)cc2)CC1` (stereo not drawn): 2.43; `c1ccc2c(c1)CNCCC[NH2+]Cc1ccccc1OCCCO2`: 7.89.
Still for that read-out and setting: with `Cc1cc(-n2nc(C)cc2C)[nH]n1` the figure was 2.23; with `CC(O)CN(CC(C)O)C(C)(C)C` (stereo not drawn), 9.36.
In turn, `CCNC(=O)CS` showed a pKa (acidic group) of 8.14.
As to `CN1CCCN(C)Cc2ccccc2OCCOc2ccccc2C1`, the pKa (basic group) was 10.1.
Molecule `Oc1[nH+]ncc2ccccc12` had a pKa (acidic group) of -2.
As for `C[C@@H]1CNC[C@H](C)[NH2+]1`, the pKa (basic group) was 5.4.
`CC(C)Oc1cccc(C(=O)O)c1` gave a pKa (acidic group) of 4.15.
`CC(=O)c1ccc(CC(=O)O)s1` had a pKa (acidic group) of 3.8.
Same read-out and setting: next, `O=[N+]([O-])c1cccc(S)c1`: 5.24.
On to `CN1CCCC1c1cncc2[nH]c3ccccc3c12` (stereo not drawn), for which the pKa (basic group) worked out at 8.02.
On the same count and under the same terms, with `CC1(C)CN1` the figure was 5.37.
In the case of `CCCCOC(=S)NC(C)=O`, the pKa (acidic group) came to 9.25.
The molecule `CCN(CC)c1nc(N)nc(N(CC)CC)n1` had a pKa (basic group) of 6.28.
For the molecule `C=C(C)[C@H]1C[NH2+][C@H](C(=O)O)[C@H]1CC(=O)OC`, the pKa (acidic group) is 1.95.
The molecule `NNC(=O)C(F)(F)C(F)(F)F` yielded a pKa (acidic group) of 7.92.
The molecule `Cc1c2ccncc2cc2c1[nH]c1cc[nH+]cc12` had a pKa (basic group) of 5.3.
Take `COc1ccc(O)c([N+](=O)[O-])c1`: the pKa (acidic group) turned out to be 7.39.
Where the note is “acidic group”, `CC(C)(C)c1ccc(SCC(=O)O)cc1` registered a pKa of 3.76.
`Cc1cnc(C)c(O)c1C=O`: the pKa by setting is: (acidic group) 8.08; (basic group) 4.1.
`CCCCCCCCCCCCCCN(CCO)CC(O)CC` (stereo not drawn): the pKa (basic group) came to 6.1.
`[NH3+]c1ccccc1O[C@H]1O[C@@H](C(=O)O)[C@H](O)[C@@H](O)[C@@H]1O` registered a pKa (acidic group) of 3.3.
`C1CN=C2NCCC2C1` (stereo not drawn): the pKa (basic group) came to 11.7.
`Cc1ccc2c(c1)sc(-c1ccc(N(C)C)cc1)[n+]2C` yielded a pKa (basic group) of 2.69.
Molecule `OC[C@H]1O[C@@H]2NC(=S)O[C@@H]2[C@H]1O` had a pKa (acidic group) of 9.48.
For the setting “acidic group”, `CC(=O)N(C)CC(=O)O` showed a pKa of 3.16.
On the same count and under the same terms, next, `CC(Cl)C(=O)O` (stereo not drawn): 2.88.
Turning to `C[NH2+]CCCN`, the pKa (basic group) was 8.66.
As to `O=[N+]([O-])c1cccc(C2NCCS2)c1` (stereo not drawn), the pKa (basic group) was found to be 4.63.
Consider `CCCCNCCCC`, for which the pKa (basic group) was 11.3.
For the molecule `Cn1cnc2[nH]c(=O)[nH]c(=S)c21`, the pKa came out at 6.8 (acidic group) and 0.3 (basic group).
Under “basic group”, `[O-]c1nccc2cccnc12` had a pKa of 12.
`CS(=O)(=O)NC(N)=O`: the pKa (acidic group) was 5.1.
The molecule `CC(C)c1cccc(C(=O)O)c1` displayed a pKa (acidic group) of 4.27.
Same read-out and setting: with `CC(C)C1NC(=S)NC1=O` (stereo not drawn) the figure was 8.7.
For the molecule `O=C([O-])C(CO)[NH2+]Cc1cc([N+](=O)[O-])ccc1O` (stereo not drawn), for the setting “acidic group”, the pKa stood at 6.15.
For `CCCCCCCCCCCCCCCCCCCCCCN`, the pKa (basic group) was 10.6.
For `O=C(O)c1cc2ccccc2[nH]1`, the pKa (acidic group) turned out to be 3.79 and the pKa (basic group) was -0.57.
In turn, `COC(=O)c1ccccc1S` had a pKa (acidic group) of 6.3.
On the same count and under the same terms, with `O=c1ccccc(Br)c1O` the figure was 5.96; with `Cc1ccc2[nH]nnc2c1`, 8.9.
As to `Oc1ccc2ncncc2c1`, the pKa was 8.19 (acidic group) and 3.12 (basic group).
The molecule `CC(=O)N1CSC[C@H]1C(=O)O` gave a pKa (acidic group) of 2.94.
